From PubChem BioAssay (NCI)
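Cultured in 96-well plates, cells were exposed to test compound for 48 hours across five concentrations. At the GI50, growth is halved. The concentration for full growth arrest is given as TGI.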

Legend:
Assay in all cases: growth of human tumour cells (NCI), 48 h
RXF 393 renal = test system: RXF 393 renal
UACC-257 melanoma = test system: UACC-257 melanoma
MALME-3M melanoma = test system: MALME-3M melanoma
RPMI-8226 leukemia = test system: RPMI-8226 leukemia
HOP-92 NSCLC = test system: HOP-92 NSCLC
SN12C renal = test system: SN12C renal
SK-MEL-2 melanoma = test system: SK-MEL-2 melanoma
K-562 leukemia = test system: K-562 leukemia
KM12 colon = test system: KM12 colon
786-0 renal = test system: 786-0 renal

SMILES | TGI (RXF 393 renal) | TGI (UACC-257 melanoma) | TGI (MALME-3M melanoma) | TGI (RPMI-8226 leukemia) | TGI (HOP-92 NSCLC) | TGI (SN12C renal) | TGI (SK-MEL-2 melanoma) | TGI (K-562 leukemia) | TGI (KM12 colon) | TGI (786-0 renal) | GI50 (RXF 393 renal) | GI50 (UACC-257 melanoma) | GI50 (MALME-3M melanoma) | GI50 (RPMI-8226 leukemia) | GI50 (HOP-92 NSCLC) | GI50 (SN12C renal) | GI50 (SK-MEL-2 melanoma) | GI50 (K-562 leukemia) | GI50 (KM12 colon) | GI50 (786-0 renal)
CSc1ccc(/C=C2\CN(C)C/C(=C\c3ccc(SC)cc3)C2=O)cc1 | > 100 µM | > 100 µM | > 100 µM | > 100 µM | > 100 µM | 78.9 µM | > 100 µM | > 100 µM | 44.8 µM | > 100 µM |  |  |  |  |  |  |  |  |  | 
CCc1ccc2c(c1)C(=O)c1c-2n(CCCBr)c(=O)c2cc([N+](=O)[O-])ccc12 | > 50 µM | > 50 µM | > 50 µM | > 50 µM | > 50 µM | > 50 µM | > 50 µM | > 50 µM | > 50 µM | > 50 µM | 21.8 µM | > 50 µM | 18.5 µM | > 50 µM | 16 µM | > 50 µM | 31.9 µM | > 50 µM | > 50 µM | 23.4 µM
CC(C)c1ccc(C(C)C(=O)N(CC2=C(C(C)c3ccccn3)c3ccccc3C2)C(C)C)cc1 (stereo not given) | 14.3 µM | 38.3 µM | 8.57 µM | 7.52 µM | 12.8 µM | 3.51 µM | 7.15 µM | 15 µM | 12.2 µM | 11.5 µM | 2.38 µM | 3.43 µM | 2.83 µM | 2.32 µM | 1.98 µM | 1.88 µM | 2.55 µM | 2.39 µM | 3.36 µM | 3.14 µM
CCOC(=O)c1ncn2c1[nH]c(=S)c1ccccc12 | > 100 µM | > 100 µM | > 100 µM | > 100 µM | > 100 µM | > 100 µM | > 100 µM | > 100 µM | > 100 µM | > 100 µM |  |  |  |  |  |  |  |  |  | 
Clc1cccc(Cc2cn3cc(-c4ccccc4)nc3s2)c1Cl | 18.7 µM | > 100 µM | > 100 µM | > 100 µM | 16.9 µM | > 100 µM | 80.8 µM | > 100 µM | > 100 µM | > 100 µM | 3.13 µM | 67.3 µM | 56.2 µM | > 100 µM | 2.84 µM | > 100 µM | 22.3 µM | > 100 µM | 6.35 µM | > 100 µM
Fc1ccc(Nc2ncnc3ccc(-c4cnc5[nH]ccc5c4)cc23)cc1Cl | 6.27 µM | > 100 µM | 7.84 µM | > 100 µM | 5.49 µM | 4.88 µM | 68.2 µM | > 100 µM | > 100 µM | 3.27 µM | 1.53 µM | 13.5 µM | 2.05 µM | 3.09 µM | 1.68 µM | 1.73 µM | 16.6 µM | 3.48 µM | 4.71 µM | 1.57 µM
O=C(NCCNc1nccc(-c2c(-c3cccc(O)c3)nc3sccn23)n1)c1ccccc1O | 16.8 µM | 11.2 µM | 18.7 µM | 10.8 µM | 28.6 µM | 52 µM | 6.09 µM | > 100 µM | 15.7 µM | 43.1 µM | 2.78 µM | 0.473 µM | 0.152 µM | 2.27 µM | 2.92 µM | 3.56 µM | 1.59 µM | 4.11 µM | 4.41 µM | 6.25 µM
